From PubChem BioAssay (NCI)
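Each compound was tested at five concentrations against cells in 96-well plates for 48 hours. GI50 is the concentration that inhibits growth by half. The concentration for full growth arrest is given as TGI.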

Columns and labels:
Experiment in all cases: DTP human tumour cell line panel, 48 h
786-0 renal = test system: 786-0 renal
A498 renal = test system: A498 renal
A549 NSCLC = test system: A549 NSCLC
ACHN renal = test system: ACHN renal
BT-549 breast = test system: BT-549 breast
CAKI-1 renal = test system: CAKI-1 renal
CCRF-CEM leukemia = test system: CCRF-CEM leukemia
COLO 205 colon = test system: COLO 205 colon
DU-145 prostate = test system: DU-145 prostate
EKVX NSCLC = test system: EKVX NSCLC
HCC-2998 colon = test system: HCC-2998 colon
HCT-116 colon = test system: HCT-116 colon
HCT-15 colon = test system: HCT-15 colon
HL-60(TB) leukemia = test system: HL-60(TB) leukemia
HOP-62 NSCLC = test system: HOP-62 NSCLC
HOP-92 NSCLC = test system: HOP-92 NSCLC
HS 578T breast = test system: HS 578T breast
HT29 colon = test system: HT29 colon
IGROV1 ovarian = test system: IGROV1 ovarian
K-562 leukemia = test system: K-562 leukemia
KM12 colon = test system: KM12 colon
LOX IMVI melanoma = test system: LOX IMVI melanoma
M14 melanoma = test system: M14 melanoma
MALME-3M melanoma = test system: MALME-3M melanoma
MCF7 breast = test system: MCF7 breast
MDA-MB-231 breast = test system: MDA-MB-231 breast
MDA-MB-435 = test system: MDA-MB-435
MOLT-4 leukemia = test system: MOLT-4 leukemia
NCI-H226 lung = test system: NCI-H226 lung
NCI-H23 lung = test system: NCI-H23 lung
NCI-H460 lung = test system: NCI-H460 lung
NCI-H522 lung = test system: NCI-H522 lung
NCI/ADR-RES ovarian = test system: NCI/ADR-RES ovarian
OVCAR-3 ovarian = test system: OVCAR-3 ovarian
OVCAR-4 ovarian = test system: OVCAR-4 ovarian
OVCAR-5 ovarian = test system: OVCAR-5 ovarian
OVCAR-8 ovarian = test system: OVCAR-8 ovarian
PC-3 prostate = test system: PC-3 prostate
RPMI-8226 leukemia = test system: RPMI-8226 leukemia
RXF 393 renal = test system: RXF 393 renal
SF-268 CNS = test system: SF-268 CNS
SF-295 CNS = test system: SF-295 CNS
SF-539 CNS = test system: SF-539 CNS
SK-MEL-2 melanoma = test system: SK-MEL-2 melanoma
SK-MEL-28 melanoma = test system: SK-MEL-28 melanoma
SK-MEL-5 melanoma = test system: SK-MEL-5 melanoma
SK-OV-3 ovarian = test system: SK-OV-3 ovarian
SN12C renal = test system: SN12C renal
SNB-19 CNS = test system: SNB-19 CNS
SNB-75 CNS = test system: SNB-75 CNS
SW-620 colon = test system: SW-620 colon
T-47D breast = test system: T-47D breast
TK-10 renal = test system: TK-10 renal
U251 CNS = test system: U251 CNS
UACC-257 melanoma = test system: UACC-257 melanoma
UACC-62 melanoma = test system: UACC-62 melanoma
UO-31 renal = test system: UO-31 renal
SR leukemia = test system: SR leukemia

O=C1N2CCC[C@H]2CS1(=O)=O
TGI (786-0 renal): 23.1 µM
TGI (A498 renal): 44.5 µM
TGI (A549 NSCLC): 47.3 µM
TGI (ACHN renal): 29.7 µM
TGI (BT-549 breast): 30.2 µM
TGI (CAKI-1 renal): 18.2 µM
TGI (CCRF-CEM leukemia): 7.1 µM
TGI (COLO 205 colon): 28.9 µM
TGI (DU-145 prostate): 35.8 µM
TGI (EKVX NSCLC): 44.4 µM
TGI (HCC-2998 colon): 32.2 µM
TGI (HCT-116 colon): 28.1 µM
TGI (HCT-15 colon): 29.4 µM
TGI (HL-60(TB) leukemia): 39.3 µM
TGI (HOP-62 NSCLC): 32 µM
TGI (HOP-92 NSCLC): 25.7 µM
TGI (HS 578T breast): > 100 µM
TGI (HT29 colon): 75.1 µM
TGI (IGROV1 ovarian): 34.7 µM
TGI (K-562 leukemia): 32.1 µM
TGI (KM12 colon): 30.8 µM
TGI (LOX IMVI melanoma): 27.3 µM
TGI (M14 melanoma): 31.6 µM
TGI (MALME-3M melanoma): 28.3 µM
TGI (MCF7 breast): 21.8 µM
TGI (MDA-MB-231 breast): 29.6 µM
TGI (MDA-MB-435): 36.7 µM
TGI (MOLT-4 leukemia): 22.5 µM
TGI (NCI-H226 lung): 72.2 µM
TGI (NCI-H23 lung): 34 µM
TGI (NCI-H460 lung): 88.1 µM
TGI (NCI-H522 lung): 18.5 µM
TGI (NCI/ADR-RES ovarian): > 100 µM
TGI (OVCAR-3 ovarian): 31.4 µM
TGI (OVCAR-4 ovarian): 28.6 µM
TGI (OVCAR-5 ovarian): 93.7 µM
TGI (OVCAR-8 ovarian): 55.1 µM
TGI (PC-3 prostate): 31.4 µM
TGI (RPMI-8226 leukemia): 10.8 µM
TGI (RXF 393 renal): 21.7 µM
TGI (SF-268 CNS): 42.7 µM
TGI (SF-295 CNS): > 100 µM
TGI (SF-539 CNS): > 100 µM
TGI (SK-MEL-2 melanoma): 34.4 µM
TGI (SK-MEL-28 melanoma): 41.2 µM
TGI (SK-MEL-5 melanoma): 33.3 µM
TGI (SK-OV-3 ovarian): > 100 µM
TGI (SN12C renal): 29.1 µM
TGI (SNB-19 CNS): > 100 µM
TGI (SNB-75 CNS): 41.2 µM
TGI (SW-620 colon): 42.1 µM
TGI (T-47D breast): 32.9 µM
TGI (TK-10 renal): 32.2 µM
TGI (U251 CNS): 30 µM
TGI (UACC-257 melanoma): 37.4 µM
TGI (UACC-62 melanoma): 30 µM
TGI (UO-31 renal): 28.5 µM

CN(C)CCN1C(=O)c2cccc3c(/C=C/CN4C(=O)c5cccc6cccc(c56)C4=O)ccc(c23)C1=O
GI50 (786-0 renal): 4.5 µM
TGI (786-0 renal): 19.5 µM
GI50 (A498 renal): 34.1 µM
TGI (A498 renal): > 100 µM
GI50 (A549 NSCLC): > 100 µM
TGI (A549 NSCLC): > 100 µM
GI50 (ACHN renal): 28.3 µM
TGI (ACHN renal): > 100 µM
GI50 (BT-549 breast): 43.5 µM
TGI (BT-549 breast): > 100 µM
GI50 (CAKI-1 renal): 13.4 µM
TGI (CAKI-1 renal): 28.6 µM
GI50 (CCRF-CEM leukemia): 339 nM
TGI (CCRF-CEM leukemia): 69.9 µM
GI50 (COLO 205 colon): > 100 µM
TGI (COLO 205 colon): > 100 µM
GI50 (DU-145 prostate): > 100 µM
TGI (DU-145 prostate): > 100 µM
GI50 (EKVX NSCLC): > 100 µM
TGI (EKVX NSCLC): > 100 µM
GI50 (HCC-2998 colon): > 100 µM
TGI (HCC-2998 colon): > 100 µM
GI50 (HCT-116 colon): 56.9 µM
TGI (HCT-116 colon): > 100 µM
GI50 (HCT-15 colon): > 100 µM
TGI (HCT-15 colon): > 100 µM
GI50 (HL-60(TB) leukemia): > 100 µM
TGI (HL-60(TB) leukemia): > 100 µM
GI50 (HOP-62 NSCLC): 42 µM
TGI (HOP-62 NSCLC): > 100 µM
GI50 (HOP-92 NSCLC): 3.67 µM
TGI (HOP-92 NSCLC): 20.1 µM
GI50 (HS 578T breast): 13.8 µM
TGI (HS 578T breast): 35.7 µM
GI50 (HT29 colon): > 100 µM
TGI (HT29 colon): > 100 µM
GI50 (IGROV1 ovarian): > 100 µM
TGI (IGROV1 ovarian): > 100 µM
GI50 (KM12 colon): > 100 µM
TGI (KM12 colon): > 100 µM
GI50 (LOX IMVI melanoma): 14.5 µM
TGI (LOX IMVI melanoma): 27.7 µM
GI50 (M14 melanoma): > 100 µM
TGI (M14 melanoma): > 100 µM
GI50 (MALME-3M melanoma): 4.06 µM
TGI (MALME-3M melanoma): 30.5 µM
GI50 (MCF7 breast): 21.1 µM
TGI (MCF7 breast): 62.4 µM
GI50 (MDA-MB-231 breast): 35.9 µM
TGI (MDA-MB-231 breast): > 100 µM
GI50 (MDA-MB-435): > 100 µM
TGI (MDA-MB-435): > 100 µM
GI50 (MOLT-4 leukemia): > 100 µM
TGI (MOLT-4 leukemia): > 100 µM
GI50 (NCI-H226 lung): 1920 nM
TGI (NCI-H226 lung): 35.4 µM
GI50 (NCI-H23 lung): > 100 µM
TGI (NCI-H23 lung): > 100 µM
GI50 (NCI-H460 lung): > 100 µM
TGI (NCI-H460 lung): > 100 µM
GI50 (NCI-H522 lung): > 100 µM
TGI (NCI-H522 lung): > 100 µM
GI50 (NCI/ADR-RES ovarian): > 100 µM
TGI (NCI/ADR-RES ovarian): > 100 µM
GI50 (OVCAR-3 ovarian): > 100 µM
TGI (OVCAR-3 ovarian): > 100 µM
GI50 (OVCAR-4 ovarian): > 100 µM
TGI (OVCAR-4 ovarian): > 100 µM
GI50 (OVCAR-5 ovarian): 35.5 µM
TGI (OVCAR-5 ovarian): > 100 µM
GI50 (OVCAR-8 ovarian): 4.21 µM
TGI (OVCAR-8 ovarian): > 100 µM
GI50 (PC-3 prostate): > 100 µM
TGI (PC-3 prostate): > 100 µM
GI50 (RPMI-8226 leukemia): > 100 µM
TGI (RPMI-8226 leukemia): > 100 µM
GI50 (RXF 393 renal): 59.2 µM
TGI (RXF 393 renal): > 100 µM
GI50 (SF-268 CNS): 51.5 µM
TGI (SF-268 CNS): > 100 µM
GI50 (SF-295 CNS): > 100 µM
TGI (SF-295 CNS): > 100 µM
GI50 (SF-539 CNS): 6.33 µM
TGI (SF-539 CNS): 19.5 µM
GI50 (SK-MEL-2 melanoma): > 100 µM
TGI (SK-MEL-2 melanoma): > 100 µM
GI50 (SK-MEL-28 melanoma): 766 nM
TGI (SK-MEL-28 melanoma): 4.71 µM
GI50 (SK-MEL-5 melanoma): > 100 µM
TGI (SK-MEL-5 melanoma): > 100 µM
GI50 (SK-OV-3 ovarian): > 100 µM
TGI (SK-OV-3 ovarian): > 100 µM
GI50 (SN12C renal): 21.9 µM
TGI (SN12C renal): 70.5 µM
GI50 (SNB-19 CNS): 13.9 µM
TGI (SNB-19 CNS): 26.9 µM
GI50 (SR leukemia): 39.2 µM
TGI (SR leukemia): > 100 µM
GI50 (SW-620 colon): > 100 µM
TGI (SW-620 colon): > 100 µM
GI50 (T-47D breast): > 100 µM
TGI (T-47D breast): > 100 µM
GI50 (TK-10 renal): 34.7 µM
TGI (TK-10 renal): 82.8 µM
GI50 (U251 CNS): 46.5 µM
TGI (U251 CNS): > 100 µM
GI50 (UACC-257 melanoma): > 100 µM
TGI (UACC-257 melanoma): > 100 µM
GI50 (UACC-62 melanoma): 16.3 µM
TGI (UACC-62 melanoma): 33.1 µM
GI50 (UO-31 renal): 17.4 µM
TGI (UO-31 renal): 48.2 µM
